From the supplement of paper PMC10307832

Key:
Experiment in all cases: relative viability (nuclei count vs DMSO), 5 days (fraction); higher = more cells survive
[1] = compound: Cn1cc(-c2cnn3c(N)c(Br)c([C@@H]4CCCNC4)nc23)cn1 + O=C(CCCCCCC(=O)Nc1ccccc1)NO [Vorinostat] (partner 1 µM)
Procedure, shortened: (§1)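 Lung cancer cell lines, seeded in 1536-well plates, were treated the following day by pin tool with a single drug or with five library-drug doses (not always all listed) in √10 steps on top of a fixed anchor-drug dose. Cells were fixed and nuclei stained in one step after 5 days, and nuclei were counted. Relative viability is the nuclei count for treated wells divided by that for vehicle wells, reported as medians of duplicate plates.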

[2] = compound: Cn1cc(-c2cnn3c(N)c(Br)c([C@@H]4CCCNC4)nc23)cn1 + Cc1nc(Nc2ncc(C(=O)Nc3c(C)cccc3Cl)s2)cc(N2CCN(CCO)CC2)n1 [Dasatinib] (partner 0.075 µM)
Procedure, shortened: as §1

[3] = compound: Cn1cc(-c2cnn3c(N)c(Br)c([C@@H]4CCCNC4)nc23)cn1 + CS(=O)(=O)N1CCN(Cc2cc3nc(-c4cccc5[nH]ncc45)nc(N4CCOCC4)c3s2)CC1 [Pictilisib] (partner 1 µM)
Procedure, shortened: as §1

[4] = compound: Cn1cc(-c2cnn3c(N)c(Br)c([C@@H]4CCCNC4)nc23)cn1 + C[C@@H](Oc1cc(-c2cnn(C3CCNCC3)c2)cnc1N)c1c(Cl)ccc(F)c1Cl [Crizotinib] (partner 1 µM)
Procedure, shortened: as §1

Cell Line | relative viability ([1]; first compound 0.05 µM) | relative viability ([1]; first compound 0.1581 µM) | relative viability ([1]; first compound 0.5 µM) | relative viability ([1]; first compound 1.581 µM) | relative viability ([1]; first compound 5 µM) | relative viability ([2]; first compound 0.05 µM) | relative viability ([2]; first compound 0.1581 µM) | relative viability ([2]; first compound 0.5 µM) | relative viability ([2]; first compound 1.581 µM) | relative viability ([2]; first compound 5 µM) | relative viability ([3]; first compound 0.05 µM) | relative viability ([3]; first compound 0.1581 µM) | relative viability ([3]; first compound 0.5 µM) | relative viability ([3]; first compound 1.581 µM) | relative viability ([3]; first compound 5 µM) | relative viability ([4]; first compound 0.05 µM) | relative viability ([4]; first compound 0.1581 µM) | relative viability ([4]; first compound 0.5 µM) | relative viability ([4]; first compound 1.581 µM) | relative viability ([4]; first compound 5 µM)
NCI-H650 | 0.412 | 0.514 | 0.384 | 0.447 | 0.337 | 0.439 | 0.409 | 0.451 | 0.474 | 0.422 | 1.06 | 0.882 | 0.804 | 0.749 | 0.602 | 0.778 | 0.708 | 0.706 | 0.627 | 0.606
NCI-H661 | 0.829 | 0.82 | 0.833 | 0.736 | 0.63 | 0.898 | 0.962 | 0.891 | 0.82 | 0.432 | 0.321 | 0.432 | 0.441 | 0.291 | 0.357 | 1.15 | 1.23 | 1.12 | 1.05 | 0.98
NCI-H727 | 1.04 | 1.17 | 1.33 | 1.15 | 1.13 | 0.29 | 0.292 | 0.333 | 0.403 | 0.287 | 0.411 | 0.354 | 0.604 | 0.276 | 0.22 | 0.912 | 0.965 | 0.664 | 0.648 | 0.353
NCI-H838 | 0.788 | 0.779 | 0.742 | 0.65 | 0.527 | 0.196 | 0.298 | 0.277 | 0.284 | 0.254 | 0.365 | 0.501 | 0.416 | 0.264 | 0.488 | 0.925 | 0.987 | 0.783 | 0.785 | 0.561
NCI-H1355 | 0.645 | 0.743 | 0.664 | 0.524 | 0.564 | 0.705 | 0.705 | 0.596 | 0.652 | 0.566 | 0.402 | 0.474 | 0.467 | 0.408 | 0.342 | 0.984 | 1.12 | 1.07 | 1.01 | 0.698
NCI-H1437 | 0.907 | 0.927 | 0.955 | 0.692 | 0.508 | 0.389 | 0.39 | 0.4 | 0.298 | 0.343 | 0.438 | 0.411 | 0.418 | 0.292 | 0.306 | 1.09 | 1.05 | 0.967 | 0.693 | 0.849
NCI-H1650 | 0.594 | 0.524 | 0.471 | 0.595 | 0.336 |  | 0.296 | 0.257 | 0.256 | 0.178 | 0.66 | 0.654 | 0.681 | 0.479 | 0.24 | 1.08 | 0.909 | 1.29 | 0.709 | 0.477
NCI-H1651 | 0.543 | 0.587 | 0.512 | 0.531 | 0.39 | 0.348 | 0.447 | 0.551 | 0.224 | 0.149 | 0.662 | 0.613 | 0.607 | 0.283 | 0.312 | 0.902 | 0.985 | 0.806 | 0.821 | 0.569
